Molecular target: T1, transketolase (TKT) (Homo sapiens, UniProt P29401)
T1 sequence (P29401 1-623): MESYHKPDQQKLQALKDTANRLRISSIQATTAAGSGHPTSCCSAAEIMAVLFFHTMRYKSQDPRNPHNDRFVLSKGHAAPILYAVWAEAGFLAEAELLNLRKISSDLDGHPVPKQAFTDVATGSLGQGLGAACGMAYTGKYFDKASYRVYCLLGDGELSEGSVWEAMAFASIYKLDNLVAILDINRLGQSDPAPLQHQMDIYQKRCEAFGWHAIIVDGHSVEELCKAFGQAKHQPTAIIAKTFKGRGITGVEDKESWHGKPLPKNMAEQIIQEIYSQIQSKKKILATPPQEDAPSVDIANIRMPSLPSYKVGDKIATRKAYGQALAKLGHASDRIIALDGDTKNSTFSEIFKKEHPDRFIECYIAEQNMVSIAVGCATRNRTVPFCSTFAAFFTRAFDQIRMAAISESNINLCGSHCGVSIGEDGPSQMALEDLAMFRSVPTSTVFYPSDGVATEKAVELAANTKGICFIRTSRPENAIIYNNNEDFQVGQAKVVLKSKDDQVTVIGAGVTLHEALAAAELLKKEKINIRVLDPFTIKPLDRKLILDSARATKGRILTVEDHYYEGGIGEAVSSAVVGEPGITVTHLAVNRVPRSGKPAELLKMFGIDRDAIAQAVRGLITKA
Experiment: Bio-layer interferometry with biotinylated TKT on SA biosensors; supported by DARTS and CETSA in A549/DDP cells
Format: binding

CN1C(=O)[C@@]23C[C@]4([C@]56C[C@@]78SS[C@@](CO)(C(=O)N7[C@H]5Nc5ccccc56)N(C)C8=O)c5ccccc5N[C@@H]4N2C(=O)[C@]1(CO)SS3 [chaetocin]
Kd: 63.2 µM

Source: PMC11939327, “Chaetocin, a Natural Inhibitor of Transketolase, Suppresses the Non-Oxidative Pentose Phosphate Pathway and Inhibits the Growth of Drug-Resistant Non-Small Cell Lung Cancer” (Antioxidants, 2025)
